# Reference: patent US11066378B2, “Caffeic acid derivatives for anti-angiogenesis” (Taipei Medical University, priority 2015, dated 2021)
# What was measured:
# Assay type in all cases: cell-based, human
# [1] = system: MEK1/2-ERK1/2 and AKT-mTOR signaling pathway; experiment: VEGFR-2 downstream signaling cascades in HUVECs (immunoblot); conditions: activation level rather than total protein level
# Experimental: The experiments were carried out as described previously (Pan et al., 2010). Briefly, the cells (5×10^5 cells/well) seeded on the 6-well plates and incubated with different concentrations (0.5, 1, and 2 μM) of K20E under normal culture condition for 15 min or 24 h to detect the expression levels of the phosphorylated proteins and the total proteins, respectively. The treated cells were harvested and lysed by using PROPREP® protein extraction solution (#17081; iNtRON Biotechnology, Gyeonggi-Do, South Korea). The cell lysates were further centrifuged at 13000×g at 4° C. for 10 min to collect the supernatants for sodium dodecyl sulfate-polyacrylamide gel electrophoresis (SDS-PAGE). Protein concentration was measured by the Bio-Rad protein assay kit (Bio-Rad, Hercules, Calif., USA) according to the manufacturer's instructions. Aliquots containing 30 μg protein were electrophoresed using 10% slab SDS-PAGE gels and then transferred to PVDF membranes (Immobilon-P™; Millipore, Bedford, Mass., USA). […] The luminescence signal was acquired by Fujifilm LAS-4000 system (San Leandro, Calif., USA) and quantified by using MultiGauge software (v3.0; Fujifilm). […] The relative protein expression was calculated according to the values of the control group (treated with 5% or 10% FBS alone) as 100%.
# HUVECs [2] = experiment: Cell cycle analysis by flow cytometry; conditions: 24 h, FIG. 2E
# Experimental: The experiments were performed according to our previous report with minor modifications (Pan et al., 2010). Briefly, the HUVECs (5×10^5 cells/well) were seeded on 6-well plated and harvested after 24 h treatment of K20E (0.5, 1, and 2 μM). Harvested cells were fixed with 70% ice-cold ethanol overnight. Cell pellets were centrifuged (1500 rpm, 5 min, 4° C.) and then re-suspended in 500 μL of DNA staining buffer containing 4 μg/mL propidium iodide, 1% Triton X-100, and 0.5 mg/mL of RNase A. After incubation at 37° C. (water bath) for 30 min in the dark, the cell cycle phase distributions were detected and analyzed by using FACSCanto flow cytometer (BD Biosciences, San Jose, Calif., USA) and ModFit LT Program (Verify Software House, Topsham, Me., USA), respectively.
# HUVECs [3] = experiment: Transwell cell migration assay; conditions: 0.5 μM, 16 h, FIG. 3A
# Experimental: For evaluating cell migration, the HUVECs (1×10^5 cells/well) suspended within serum-free culture medium were seeded on inner surface of the upper chamber (ThinCerts™ Cell Culture Inserts with 8 μm pore size; #662638; Greiner Bio-One Inc., Monroe, N.C., USA) placed in the lower chamber (wells of a 24-well plate). For examining the cell invasion, the HUVECs were pre-mixed with equal volume of thawed Matrigel and rapidly seeded on the upper chamber. After 2 h for cell attachment, K20E at different concentrations (0.5, 1, and 2 μM) were added in the upper and the lower chambers, while 5% FBS as a chemoattractant was added in the lower chamber to facilitate cell migration or invasion. After 16 h incubation, the culture medium (or Matrigel) was removed clearly from inside the upper chamber, and the migrated or invasion cells attached on the outer surface of the upper chamber were fixed with 10% formaldehyde for 10 min at RT. The fixed cells were subsequently counterstained with hematoxylin. Relative cell number of each groups was counted from five random regions by light microscopy using a 40-fold magnification. The cell number of the control group (treated with 5% FBS alone) was defined as 100%.
# HUVECs [4] = experiment: Cell viability assay (MTT assay), growth inhibition of HUVECs
# Experimental: Human umbilical vein endothelial cells (HUVECs; #8000) were purchased from the ScienCell Research Laboratories (San Diego, Calif., USA). The cells were seeded on gelatin-coated culture dishes and grown in the commercial endothelial cell medium (#1001; ScienCell) containing 5% fetal bovine serum (FBS; #0025; ScienCell), 30 μg/mL endothelial cell growth supplements (ECGS; #1052; ScienCell), 100 units/mL penicillin G, and 100 μg/mL streptomycin sulfates (#0503; ScienCell). Cells at passage 3-6 were used for experiments. Mouse Lewis lung carcinoma cell line 1 (LLC1; #60050) was bought from the Food Industry Research and Development Institute (Hsinchu, Taiwan) and cultured in Gibco® Dulbecco's modified Eagle's medium (#12800-017; Invitrogen, Carlsbad, Calif., USA) supplemented with 10% FBS (HyClone, Logan, Utah, USA), 4 mM L-glutamine, 1.5 g/L sodium bicarbonate, 100 units/mL penicillin G, and 100 μg/mL streptomycin. All cells were incubated in a humidified 5% CO2 atmosphere at 37° C. and culture media was changed every 2˜3 days.
# The experiments were performed according to our previous study with minor modifications (Pan et al., 2010). Briefly, the cells (2×10^4 cells/well) were seeded and grown under normal culture medium for 24 h. After another 24 h of starvation with 0.5% FBS, the cells were treated with several concentrations (1, 2, 4, 8, and 16 μM) of the tested compounds for 24 h and then incubated with 5 mg/mL of MTT (3-[4,5-dimethyl thiazol-2-yl]-2,5-diphenyl tetrazolium bromide) for 2 h. After that, the cells were washed with 1×PBS and then dimethyl sulfoxide (DMSO) was added to each well. Absorbance values at 570 nm were determined for each well using 650 nm as the reference wavelength. The absorbance of the control group (treated with 5% or 10% FBS alone) was defined as 100%.
compound,measurement,setting,value
COC(=O)/C=C/c1cc(OC(C)=O)c2c(c1)[C@H](C(=O)OC)[C@@H](c1ccc(OC(C)=O)c(OC(C)=O)c1)O2 [K20E],MEK1/2-ERK1/2 signaling,[1]; FIG. 6B,suppressed
same,AKT-mTOR signaling pathway,[1]; FIG. 6C,suppressed
same,cells in sub-G1 phases (apoptosis),HUVECs [2]; 0.5 μM,significantly induce cells in sub-G1 phases (apoptosis)
same,cell cycle arrest in G2/M phase,HUVECs [2]; 1 μM,arrest cells in G2/M phase
same,5% FBS-induced migration of the HUVECs,HUVECs [3],markedly abolished
same,GI50,"HUVECs [4]; Homo sapiens, HUVEC, 24 h, MTT assay, 24 h treatment, 5% FBS-stimulated HUVECs",~7.5 µM
same,5% FBS-stimulated cell growth of the HUVECs,"HUVECs [4]; dose-dependent, FIG. 2A",markedly reduced
